Test results from patent publication US9399646B2 (Genentech, Inc., priority 2010, dated 2016).

Columns and labels:
[1] = tested on: MCF-7 cells; experiment: Breast cancer cell viability assay (CellTiter-Glo, 5 days); format: cell-based; conditions: 5 days' compound exposure; for IC50: Homo sapiens, MCF7, 120 h
How it was run: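 MCF-7 cells, 320 per well in RPMI with 10% FBS and 20 mM HEPES, adhered overnight, then exposed 5 days to an eleven-point semilog dilution (final 0.3-0.000003 μM). CellTiter-Glo luminescence read; % viability = (sample − cell-free background)/(untreated − background) × 100.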

[2] = target: T1, ER-α in MCF-7 cells (Homo sapiens, UniProt P03372); experiment: Breast cancer cell ER-α in cell western assay (SP1); format: cell-based; design: endogenous in cells; host or cells: MCF-7; conditions: 4 or 24 hr post compound addition; for Emax: MCF7, SP1 antibody, read-out: ER-α In Cell Western Assay (SP1) Max Response; for DC50: SP1 antibody, read-out: ER-α In Cell Western Assay (SP1) IC50
T1 sequence (P03372 1-595): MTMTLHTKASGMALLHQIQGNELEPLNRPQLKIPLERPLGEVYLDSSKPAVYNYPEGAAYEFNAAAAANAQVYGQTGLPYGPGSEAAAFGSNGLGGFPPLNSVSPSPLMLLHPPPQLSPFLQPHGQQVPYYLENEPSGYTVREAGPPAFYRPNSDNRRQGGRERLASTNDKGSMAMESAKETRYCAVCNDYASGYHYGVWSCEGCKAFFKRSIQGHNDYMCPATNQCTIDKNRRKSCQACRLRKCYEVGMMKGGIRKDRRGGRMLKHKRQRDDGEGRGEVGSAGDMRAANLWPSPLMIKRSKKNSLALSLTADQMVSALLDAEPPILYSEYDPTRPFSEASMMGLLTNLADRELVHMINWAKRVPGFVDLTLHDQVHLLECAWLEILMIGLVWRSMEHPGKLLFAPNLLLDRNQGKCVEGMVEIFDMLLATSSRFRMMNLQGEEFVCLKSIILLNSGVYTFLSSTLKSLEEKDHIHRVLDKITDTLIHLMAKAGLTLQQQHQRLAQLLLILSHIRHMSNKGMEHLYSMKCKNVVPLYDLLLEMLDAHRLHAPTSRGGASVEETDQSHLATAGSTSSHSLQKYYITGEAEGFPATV
How it was run: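 Fixed cells were immunostained with SP1 anti-ER antibody; ER signal (800 nm) was normalized to DRAQ5 DNA signal (700 nm) and expressed as % of untreated cells.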

SMILES | IC50 [1] [nM] | Emax [2] [%] | DC50 [2] [nM] | MCF7 Viability Assay Max Response [1]
CC/C(=C(/c1ccc(/C=C/C(=O)O)cc1)c1ccc2[nH]ncc2c1)c1cc2ccccc2s1 [Compound 268, (E)-3-(4-((E)-2-(Benzo[b]thiophen-2-yl)-1-(1H-indazol-5-yl)but-1-en-1-yl)phenyl)acrylic acid] | > 100 | ≥ 40 | ≤ 100 | ++ (++ = a single % value ≧ 40%)
CC/C(=C(/c1ccc(/C=C/C(=O)O)cc1)c1ccc2[nH]ncc2c1)c1cc2c(s1)CCN(C)C2 [Compound 270, (E)-3-(4-((E)-1-(1H-Indazol-5-yl)-2-(5-methyl-4,5,6,7-tetrahydrothieno[3,2-c]pyridin-2-yl)but-1-en-1-yl)phenyl)acrylic acid] | > 100 | ≥ 40 | > 100 | ++ (++ = a single % value ≧ 40%)
CC/C(=C(/c1ccc(/C=C/C(=O)O)cc1)c1ccc2[nH]ncc2c1)c1cc(C)sc1C [Compound 274, (E)-3-(4-((E)-2-(2,5-Dimethylthiophen-3-yl)-1-(1H-indazol-5-yl)but-1-en-1-yl)phenyl)acrylic acid] | ≤ 100 | ≥ 40 | ≤ 100 | ++ (++ = a single % value ≧ 40%)
CC/C(=C(/c1ccc(/C=C/C(=O)O)cc1)c1ccc2scnc2c1)c1ccc(F)cc1Cl [Compound 275, (E)-3-(4-((E)-1-(Benzo[d]thiazol-5-yl)-2-(2-chloro-4-fluorophenyl)but-1-en-1-yl)phenyl)acrylic acid] | ≤ 100 | ≥ 40 | ≤ 100 | ++ (++ = a single % value ≧ 40%)
CC/C(=C(/c1ccc(/C=C/C(=O)O)cc1)c1ccc2scnc2c1)c1cscc1C [Compound 276, (E)-3-(4-((E)-1-(Benzo[d]thiazol-5-yl)-2-(4-methylthiophen-3-yl)but-1-en-1-yl)phenyl)acrylic acid] | ≤ 100 | ≥ 40 | ≤ 100 | ++ (++ = a single % value ≧ 40%)
O=C(O)/C=C/c1ccc(/C(=C(\c2ccc(F)cc2Cl)C2CCC2)c2ccc3scnc3c2)cc1 [Compound 278, (E)-3-(4-((E)-1-(Benzo[d]thiazol-5-yl)-2-(2-chloro-4-fluorophenyl)-2-cyclobutylvinyl)phenyl)acrylic acid] | ≤ 100 | ≥ 40 | ≤ 100 | ++ (++ = a single % value ≧ 40%)
Cc1cscc1/C(=C(\c1ccc(/C=C/C(=O)O)cc1)c1ccc2scnc2c1)C1CCC1 [Compound 279, (E)-3-(4-((E)-1-(Benzo[d]thiazol-5-yl)-2-cyclobutyl-2-(4-methylthiophen-3-yl)vinyl)phenyl)acrylic acid] | ≤ 100 | ≥ 40 | ≤ 100 | ++ (++ = a single % value ≧ 40%)
CC/C(=C(/c1ccc(/C=C/C(=O)O)cc1)c1ccc2scnc2c1)c1ccccc1Cl [Compound 280, (E)-3-(4-((E)-1-(Benzo[d]thiazol-5-yl)-2-(2-chlorophenyl)but-1-en-1-yl)phenyl)acrylic acid] | ≤ 100 | ≥ 40 | ≤ 100 | ++ (++ = a single % value ≧ 40%)
CC/C(=C(/c1ccc(/C=C/C(=O)O)cc1)c1ccc2scnc2c1)c1ccc(F)cc1 [Compound 281, (E)-3-(4-((E)-1-(Benzo[d]thiazol-5-yl)-2-(4-fluorophenyl)but-1-en-1-yl)phenyl)acrylic acid] | > 100 | ≥ 40 | ≤ 100 | ++ (++ = a single % value ≧ 40%)
CC/C(=C(/c1ccc(/C=C/C(=O)O)cc1)c1ccc2scnc2c1)c1ccc(F)cc1C [Compound 282, (E)-3-(4-((E)-1-(Benzo[d]thiazol-5-yl)-2-(4-fluoro-2-methylphenyl)but-1-en-1-yl)phenyl)acrylic acid] | ≤ 100 | ≥ 40 | ≤ 100 | ++ (++ = a single % value ≧ 40%)
CC/C(=C(/c1ccc(/C=C/C(=O)O)cc1)c1ccc2scnc2c1)c1ccccc1C [Compound 283, (E)-3-(4-((E)-1-(Benzo[d]thiazol-5-yl)-2-(o-tolyl)but-1-en-1-yl)phenyl)acrylic acid] | ≤ 100 | ≥ 40 | ≤ 100 | ++ (++ = a single % value ≧ 40%)
CC/C(=C(/c1ccc(/C=C/C(=O)O)cc1)c1ccc2scnc2c1)c1ccncc1Cl [Compound 284, (E)-3-(4-((E)-1-(Benzo[d]thiazol-5-yl)-2-(3-chloropyridin-4-yl)but-1-en-1-yl)phenyl)acrylic acid] | ≤ 100 | ≥ 40 | ≤ 100 | ++ (++ = a single % value ≧ 40%)
O=C(O)/C=C/c1ccc(/C(=C(\c2ccccc2)C2CCC2)c2ccc3scnc3c2)cc1 [Compound 286, (E)-3-(4-((E)-1-(Benzo[d]thiazol-5-yl)-2-cyclobutyl-2-phenylvinyl)phenyl)acrylic acid] | ≤ 100 | ≥ 40 | ≤ 100 | ++ (++ = a single % value ≧ 40%)
CC/C(=C(/c1ccc(/C=C/C(=O)O)cc1)c1ccc2c(c1)CNC2=O)c1ccc(F)cc1Cl [Compound 287, (E)-3-(4-((E)-2-(2-Chloro-4-fluorophenyl)-1-(1-oxoisoindolin-5-yl)but-1-en-1-yl)phenyl)acrylic acid] | ≤ 100 | ≥ 40 | ≤ 100 | ++ (++ = a single % value ≧ 40%)
CC/C(=C(/c1ccc(/C=C/C(=O)O)cc1)c1ccc2cccnc2c1)c1ccc(F)cc1Cl [Compound 289, (E)-3-(4-((E)-2-(2-Chloro-4-fluorophenyl)-1-(quinolin-7-yl)but-1-en-1-yl)phenyl)acrylic acid] | > 100 | ≥ 40 | ≤ 100 | ++ (++ = a single % value ≧ 40%)

More lines, main results first:

IC50 [1] [nM] | Emax [2] [%] | DC50 [2] [nM] | SMILES | MCF7 Viability Assay Max Response [1]
≤ 100 | ≥ 40 | ≤ 100 | CC/C(=C(/c1ccc(/C=C/C(=O)O)cc1)c1ccc2[nH]ncc2c1)c1cccc(Oc2ccc(F)cc2)c1 [Compound 269, (E)-3-(4-((E)-2-(3-(4-Fluorophenoxy)phenyl)-1-(1H-indazol-5-yl)but-1-en-1-yl)phenyl)acrylic acid] | ++ (++ = a single % value ≧ 40%)
≤ 100 | ≥ 40 | ≤ 100 | CC/C(=C(/c1ccc(/C=C/C(=O)O)cc1)c1ccc2[nH]ncc2c1)c1csc(-c2ccccc2)c1 [Compound 271, (E)-3-(4-((E)-1-(1H-Indazol-5-yl)-2-(5-phenylthiophen-3-yl)but-1-en-1-yl)phenyl)acrylic acid] | ++ (++ = a single % value ≧ 40%)
≤ 100 | ≥ 40 | ≤ 100 | CC/C(=C(/c1ccc(/C=C/C(=O)O)cc1)c1ccc2[nH]ncc2c1)c1ccc2sccc2c1 [Compound 272, (E)-3-(4-((E)-2-(Benzo[b]thiophen-5-yl)-1-(1H-indazol-5-yl)but-1-en-1-yl)phenyl)acrylic acid] | ++ (++ = a single % value ≧ 40%)
≤ 100 | ≥ 40 | ≤ 100 | CC/C(=C(/c1ccc(/C=C/C(=O)O)cc1)c1ccc2[nH]ncc2c1)c1ccc2sc(C)nc2c1 [Compound 273, (E)-3-(4-((E)-1-(1H-Indazol-5-yl)-2-(2-methylbenzo[d]thiazol-5-yl)but-1-en-1-yl)phenyl)acrylic acid] | ++ (++ = a single % value ≧ 40%)
> 100 | ≥ 40 | ≤ 100 | CC/C(=C(/c1ccc(/C=C/C(=O)O)cc1)c1ccc2[nH]ncc2c1)c1ccc(S(=O)(=O)C(F)(F)F)cc1 [Compound 288] | ++ (++ = a single % value ≧ 40%)
≤ 100 | ≥ 40 | ≤ 100 | CC/C(=C(/c1ccc(/C=C/C(=O)O)cc1)c1ccc2[nH]ncc2c1)c1ccc(Oc2ncccn2)cc1 [Compound 290, (E)-3-(4-((E)-1-(1H-Indazol-5-yl)-2-(4-(pyrimidin-2-yloxy)phenyl)but-1-en-1-yl)phenyl)acrylic acid] | ++ (++ = a single % value ≧ 40%)
≤ 100 | ≥ 40 | ≤ 100 | CC/C(=C(/c1ccc(/C=C/C(=O)O)cc1)c1ccc2[nH]ncc2c1)c1ccc(Oc2ccccc2)cc1Cl [Compound 291, (E)-3-(4-((E)-2-(2-Chloro-4-phenoxyphenyl)-1-(1H-indazol-5-yl)but-1-en-1-yl)phenyl)acrylic acid] | ++ (++ = a single % value ≧ 40%)
